IC50 data for 28 compounds are collected here from patent US20240216357A1 (SICHUAN HUIYU PHARMACEUTICAL CO., LTD., priority 2021, published 2024).

Where a name gives a salt, the structure may show the parent alone. Read-outs that look alike come from different tables or passages of the source. Bounds are passed on as bounds.

The target in one test is LSD1 (Homo sapiens (Human), UniProt O60341). Briefly: LSD1 enzyme activity detection (HTRF). The class given is biochemical. The conditions noted are these: read-out: Inhibition of enzymatic activity of LSD1 IC50.
A further test deals with NCI-H1417 cells. Briefly: In vitro cell proliferation detection (CellTiter-Glo, 7 days). The class given is cell-based. The conditions noted are these: Homo sapiens, 168 h; NCI-H1417 cells, 7 days, CellTiter-Glo; read-out: NCI-H1417 proliferation inhibition IC50. For orientation: ATP-based viability assays read luminescence as a measure of living cells.

`Cc1ccc(-c2c(O)cc(N(C)CCCN)nc2-c2ccc(C#N)c(F)c2)cc1O` [Example 63, 4-(6-((3-aminopropyl)(methyl)amino)-4-hydroxy-3-(3-hydroxy-4-methylphenyl)pyridin-2-yl)-2-fluorobenzonitrile hydrochloride]: the IC50 at LSD1 (HTRF, H3K4me1 substrate) was determined as 5.1 ± 0.4 nM; with NCI-H1417 cells, 192 nM.

Consider `CC(C)(O)Cn1ncc2cc(F)c(-c3c(-c4ccc(C#N)c(F)c4)nc(N4CCC(N)CC4)n4ccnc34)cc21` [Example 127, 4-(5-(4-aminopiperidin-1-yl)-8-(5-fluoro-1-(2-hydroxy-2-methylpropyl)-1H-indazo-6-yl)imidazolo[1,2-c]pyrimidin-7-yl)-2-fluorobenzonitrile hydrochloride], for which the IC50 at LSD1 (HTRF, H3K4me1 substrate) was 34.4 nM; in the test on NCI-H1417 cells, 135 nM.

`COc1ccc(-c2c(O)cc(N3CCC[C@@H](N)C3)nc2-c2ccc(C#N)c(F)c2)cc1F` [Example 31, (R)-4-(6-(3-aminopiperidin-1-yl)-3-(3-fluoro-4-methoxyphenyl)-4-hydroxypyridin-2-yl)-2-fluorobenzonitrile hydrochloride]: the IC50 is 51 nM on LSD1 (HTRF, H3K4me1 substrate) and 77.2 nM in the test with NCI-H1417 cells.

Regarding `N#Cc1ccc(-c2nc(N3CCC(N)CC3)n3ccnc3c2-c2ccn3ccnc3c2)cc1F` [Example 131, 4-(5-(4-aminopiperidin-1-yl)-8-(imidazolo [1,2-a]pyridin-7-yl)imidazolo[1,2-c]pyrimidin-7-yl)-2-fluorobenzonitrile], the IC50 on LSD1 (HTRF, H3K4me1 substrate) amounted to 4.46 ± 0.09 nM; in the test on NCI-H1417 cells, 80.7 nM.

Regarding `Cc1noc2cc(-c3c(C#N)cc(N4CCC(N)CC4)nc3-c3ccc(C#N)c(F)c3)c(F)cc12` [Example 275, 6-(4-aminopiperidin-1-yl)-2-(4-cyano-3-fluorophenyl)-3-(5-fluoro-3-methylbenzo[d]isoxazol-6-yl)isonionitrile], the IC50 was 0.94 nM at LSD1 (HTRF, H3K4me1 substrate) and 3.6 nM with NCI-H1417 cells.

As for `O=C(NC1CCOCC1)c1cc(CN[C@@H]2C[C@H]2c2ccc(F)cc2)nc(-c2ccc(-n3ccnn3)cc2)n1` [Example 249], the IC50 at LSD1 (HTRF, H3K4me1 substrate) was 15.8 nM; in the test on NCI-H1417 cells it was 1.11 nM.

As to `COc1ccc(-c2c(O)cc(N3CCC(NCC(C)(C)O)CC3)nc2-c2ccc(C#N)c(F)c2)cc1F` [Example 45, 2-fluoro-4-(3-(3-fluoro-4-methoxyphenyl)-4-hydroxy-6-(4-((2-hydroxy-2-methylpropyl)amino)piperidin-1-yl)pyridin-2-yl)benzonitrile hydrochloride], the IC50 at LSD1 (HTRF, H3K4me1 substrate) worked out at 184 nM; in the test with NCI-H1417 cells, 160 nM.

Regarding `CS(=O)(=O)N1CCN(C(=O)c2cc(CN[C@@H]3C[C@H]3c3ccc(F)cc3)nc(-c3ccc(-c4ccn[nH]4)cc3)n2)CC1` [Example 226], the IC50 at LSD1 (HTRF, H3K4me1 substrate) was determined as 19.8 nM; in the test with NCI-H1417 cells it was 2.53 nM.

`COc1ccc(-c2c(-c3ccc(C#N)c(F)c3)nc(N3CCC(N)CC3)c3nc[nH]c23)cc1O` [Example 271, 4-(4-(4-aminopiperidin-1-yl)-7-(3-hydroxy-4-methoxyphenyl)-1H-imidazolo[4,5-c]pyridin-6-yl)-2-fluorobenzonitrile hydrochloride]: the IC50 on LSD1 (HTRF, H3K4me1 substrate) worked out at 0.5 ± 0.4 nM; with NCI-H1417 cells, 9.77 nM.

Take `N#Cc1ccc(-c2cc(C(=O)N3C4CCC3CC(N)C4)sc2-c2cc3[nH]nnc3cc2F)cc1F` (centres unmarked) [Example 216, 4-(5-(3-amino-8-azabicyclo [3.2.1]octan-8-carbonyl)-2-(5-fluoro-1H-benzo [d][1,2,3]triazol-6-yl)thio-phen-3-yl)-2-fluorobenzo-nitrile hydrochloride]: the IC50 on LSD1 (HTRF, H3K4me1 substrate) was found to be 8.14 ± 1.84 nM; with NCI-H1417 cells, 20.9 nM.

Regarding `N#Cc1ccc(-c2nc(N3CCC(N)CC3)cc(O)c2-c2ccc3oc(=O)[nH]c3c2)cc1F` [Example 19, 4-(6-(4-aminopiperidin-1-yl)-4-hydroxy-3-(2-oxo-2,3-dihydrobenzo[d]oxazol-5-yl)pyridin-2-yl)-2-fluorobenzonitrile hydrochloride], the IC50 on LSD1 (HTRF, H3K4me1 substrate) was 5.96 nM; with NCI-H1417 cells, over 1000 nM.

On to `Cc1ccc(-c2cnc(N3CCC(N)CC3)c(C#N)c2-c2ccc(C#N)c(F)c2)cc1F` [Example 72, 2-(4-aminopiperidin-1-yl)-4-(4-cyano-3-fluorophenyl)-5-(3-fluoro-4-methylphenyl) nicotinitrile], for which the IC50 is 6.6 ± 1 nM on LSD1 (HTRF, H3K4me1 substrate) and 12.2 nM in the test with NCI-H1417 cells.

Consider `COc1ccc(-c2cnc(N3CC4CCC3CC4N)c(C#N)c2-c2ccc(C#N)c(F)c2)cc1O` (centres unmarked) [Example 76, 2-(5-amino-2-azabicyclo[2.2.2]octane-2-yl)-4-(4-cyano-3-fluorophenyl)-5-(3-hydroxy-4-methoxyphenyl) nicotinonitrile], for which the IC50 at LSD1 (HTRF, H3K4me1 substrate) amounted to 4.9 ± 2.5 nM; with NCI-H1417 cells it was 1.37 nM.

On to `N#Cc1ccc(-c2cc(C(=O)N3C4CCC3CC(N)C4)sc2-c2ccc3cn[nH]c3c2)cc1F` (centres unmarked) [Example 203, 4-(5-(3-amino-8-azabicyclo [3.2.1]octane-8-carbonyl)-2-(1H-indazol-6-yl)thiophen-3-yl)-2-fluoro-benzonitrile], for which the IC50 on LSD1 (HTRF, H3K4me1 substrate) was determined as 0.39 nM; in the test on NCI-H1417 cells it was 37.6 nM.

Regarding `COc1ccc(-c2cnc(N3CCC[C@@H](N)C3)c(C#N)c2-c2ccc(C#N)c(F)c2)cc1O` [Example 78, (R)-2-(3-aminopiperidin-1-yl)-4-(4-cyano-3-f1uorophenyl)-5-(3-hydroxy-4-methoxyphenyl) nicotinonitrile], the IC50 stood at 1.6 ± 0.3 nM on LSD1 (HTRF, H3K4me1 substrate) and 2.53 nM in the test with NCI-H1417 cells.

Regarding `Cc1noc2cc(-c3oc(C(=O)N4C5CCC4CC(N)C5)nc3-c3ccc(C#N)c(F)c3)c(F)cc12` (centres unmarked) [Example 222, 4-(2-(3-amino-8-azabicyclo[3.2.1]octane-8-carbonyl)-5-(5-fluoro-3-methylbenzo[d]isoxazol-6-yl)oxazol-4-yl)-2-fluorobenzonitrile hydrochloride], the IC50 is 14.4 nM at LSD1 (HTRF, H3K4me1 substrate) and 41 nM with NCI-H1417 cells.

Consider `O=C(c1cc(CN[C@@H]2C[C@H]2c2ccc(F)cc2)nc(-c2ccc(-n3ccnn3)cc2)n1)N1CCOCC1` [Example 242], for which the IC50 on LSD1 (HTRF, H3K4me1 substrate) was 49.6 nM; in the test with NCI-H1417 cells it was 2.83 nM.

For the compound `N#Cc1ccc(-c2nc(N3CCC(N)CC3)n3ccnc3c2-c2ccc(OC(F)(F)F)c(F)c2)cc1F` [Example 130, 4-(5-(4-aminopiperidin-1-yl)-8-(3-fluoro-4-(trifluoromethoxy)phenyl)imidazolo [1,2-c]pyrimidin-7-yl)-2-fluorobenzonitrile], the IC50 on LSD1 (HTRF, H3K4me1 substrate) came out at 10.7 nM; with NCI-H1417 cells it was 17.6 nM.

For `CCCCCc1noc2cc(-c3sc(C(=O)N4C5CCC4CC(N)C5)cc3-c3ccc(C#N)c(F)c3)c(F)cc12` (centres unmarked) [Example 8, 4-(5-(3-amino-8-azabicyclo[3.2.1]octane-8-carbonyl)-2-(5-fluoro-3-pentylbenzo[d]isoxazol-6-yl)thiophen-3-yl)-2-fluorobenzonitrile], the IC50 was determined as 0.3 ± 0.04 nM on LSD1 (HTRF, H3K4me1 substrate) and 6.94 nM in the test on NCI-H1417 cells.

As for `COc1ccc(-c2c(-c3ccc(C#N)c(F)c3)nc(N3CCC(N)CC3)c3ncoc23)cc1O` [Example 278, 4-(4-(4-aminopiperidin-1-yl)-7-(3-hydroxy-4-methoxyphenyl)oxazolo[4,5-c]pyridin-6-yl)-2-fluo robenzonitrile], the IC50 at LSD1 (HTRF, H3K4me1 substrate) came out at 0.3 ± 0.1 nM; with NCI-H1417 cells it was 0.648 nM.

In the case of `Cc1ccc(-c2c(-c3ccc(C#N)cc3)cc3c(N4CC(N)C4)nccn23)cc1` [Example 188, 4-(1-(3-aminoazetidin-1-yl)-6-(p-tolyl)pyrrolo[1,2-a]pyrazin-7-yl)benzonitrile hydrochloride], the IC50 at LSD1 (HTRF, H3K4me1 substrate) was 35 nM; with NCI-H1417 cells, over 1000 nM.

Take `COc1ccc(-c2c(-c3ccc(C#N)c(F)c3)nc(N3CC4CC(C3)C4N)n3ccnc23)cc1F` (centres unmarked) [Example 167, 4-(5-(6-amino-3-azabicyclo [3.1.1]heptane-3-yl)-8-(3-fluoro-4-methoxyphenyl)imidazolo[1,2-c]pyrimidin-7-yl)-2-fluorobenzonitrile hydrochloride]: the IC50 turned out to be 78.4 nM at LSD1 (HTRF, H3K4me1 substrate) and 155 nM in the test with NCI-H1417 cells.

With `Cc1noc2cc(-c3sc(C(=O)N4C5CCC4CC(N)C5)cc3-c3ccncc3)c(F)cc12` (centres unmarked) [Example 204, (3-amino-8-azabicyclo [3.2.1]octane-8-yl) (5-(5-fluoro-3-methylbenzo [d]isoxazol-6-yl)-4-(pyridin-4-yl)thiophen-2-yl)methanone hydrochloride], the IC50 on LSD1 (HTRF, H3K4me1 substrate) was 12.2 ± 7.3 nM; with NCI-H1417 cells it was 118 nM.

`N#CCn1ncc2cc(F)c(-c3sc(C(=O)N4C5CCC4CC(N)C5)nc3-c3ccc(C#N)c(F)c3)cc21` (centres unmarked) [Example 221, 4-(2-(3-amino-8-azabicyclo[3.2.1]octan-8-carbonyl)-5-(1-(cyanomethyl)-5-fluoro-1H-indazol-6-yl)thiazol-4-yl)-2-fluorobenzonitrile hydrochloride]: the IC50 on LSD1 (HTRF, H3K4me1 substrate) stood at 10 ± 3.2 nM; in the test on NCI-H1417 cells, 29.8 nM.

For `N#Cc1ccc(-c2nc(N3CCC(N)CC3)n3ccnc3c2-c2ccc3oc(=O)[nH]c3c2)cc1F` [Example 129, 4-(5-(4-aminopiperidin-1-yl)-8-(2-oxo-2,3-dihydrobenzo[d]oxazol-5-yl)imidazolo[1,2-c]pyrimidin-7-yl)-2-fluorobenzonitrile], the IC50 on LSD1 (HTRF, H3K4me1 substrate) came out at 0.61 ± 0.13 nM; in the test with NCI-H1417 cells, 112 nM.

Turning to `Cc1ccc(-c2c(-c3ccc(C#N)c(F)c3)nc(N3CC4CCC3CC4N)n3ccnc23)cc1O` (centres unmarked) [Example 168, 4-(5-(5-amino-2-azabicyclo [2.2.2]octane-2-yl)-8-(3-hydroxy-4-methylphenyl)imidazolo[1,2-c]pyrimidin-7-yl)-2-fluorobenzo nitrile], the IC50 at LSD1 (HTRF, H3K4me1 substrate) came to 0.5 ± 0.1 nM; in the test on NCI-H1417 cells, 1.24 nM.

With `Cc1ccc(-c2c(-c3ccc(C#N)cc3)cc3c(N4CCC[C@@H](N)C4)nccn23)cc1` [Example 3, (R)-4-(1-(3-aminopiperidin-1-yl)-6-(p-tolyl)pyrrolo[1,2-a]pyrazine-7-yl)benzonitrile], the IC50 was 0.8 ± 0.08 nM at LSD1 (HTRF, H3K4me1 substrate) and 34.2 nM in the test with NCI-H1417 cells.

For the compound `COc1ccc(-c2c(O)cc(N3CC4CNCC4C3)nc2-c2ccc(C#N)c(F)c2)cc1F` (centres unmarked) [Example 52, 2-fluoro-4-(3-(3-fluoro-4-methoxyphenyl)-6-(hexahydropyrrolo[3,4-c]pyrrole-2(1H)-yl)-4-hydroxypyridin-2-yl)benzonitrile hydrochloride], the IC50 on LSD1 was found to be 100 nM; in the test with NCI-H1417 cells, 167 nM.
